This note sets out measurements from PubChem BioAssay AID602235 (The Scripps Research Institute Molecular Screening Center, 2012).

pIC50: −log10 of the molar value. Active and inactive are the calls of the source. How the calls were made is not given here.

This test deals with Nuclear receptor coactivator 1 (Homo sapiens) (UniProt Q15788). As to the kind of experiment: SRC1 (NCOA1) coactivator inhibitors, dose response, cell-based, luciferase reporter, luminescence (AID 602235).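 Further: cells transfected with pGL4.31 reporter plus pBIND-SRC1 vector; potency is for inhibitors that lower SRC1 reporter luminescence.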
Nuclear receptor coactivator 1 (Homo sapiens), sequence (Q15788 whole entry, looked up): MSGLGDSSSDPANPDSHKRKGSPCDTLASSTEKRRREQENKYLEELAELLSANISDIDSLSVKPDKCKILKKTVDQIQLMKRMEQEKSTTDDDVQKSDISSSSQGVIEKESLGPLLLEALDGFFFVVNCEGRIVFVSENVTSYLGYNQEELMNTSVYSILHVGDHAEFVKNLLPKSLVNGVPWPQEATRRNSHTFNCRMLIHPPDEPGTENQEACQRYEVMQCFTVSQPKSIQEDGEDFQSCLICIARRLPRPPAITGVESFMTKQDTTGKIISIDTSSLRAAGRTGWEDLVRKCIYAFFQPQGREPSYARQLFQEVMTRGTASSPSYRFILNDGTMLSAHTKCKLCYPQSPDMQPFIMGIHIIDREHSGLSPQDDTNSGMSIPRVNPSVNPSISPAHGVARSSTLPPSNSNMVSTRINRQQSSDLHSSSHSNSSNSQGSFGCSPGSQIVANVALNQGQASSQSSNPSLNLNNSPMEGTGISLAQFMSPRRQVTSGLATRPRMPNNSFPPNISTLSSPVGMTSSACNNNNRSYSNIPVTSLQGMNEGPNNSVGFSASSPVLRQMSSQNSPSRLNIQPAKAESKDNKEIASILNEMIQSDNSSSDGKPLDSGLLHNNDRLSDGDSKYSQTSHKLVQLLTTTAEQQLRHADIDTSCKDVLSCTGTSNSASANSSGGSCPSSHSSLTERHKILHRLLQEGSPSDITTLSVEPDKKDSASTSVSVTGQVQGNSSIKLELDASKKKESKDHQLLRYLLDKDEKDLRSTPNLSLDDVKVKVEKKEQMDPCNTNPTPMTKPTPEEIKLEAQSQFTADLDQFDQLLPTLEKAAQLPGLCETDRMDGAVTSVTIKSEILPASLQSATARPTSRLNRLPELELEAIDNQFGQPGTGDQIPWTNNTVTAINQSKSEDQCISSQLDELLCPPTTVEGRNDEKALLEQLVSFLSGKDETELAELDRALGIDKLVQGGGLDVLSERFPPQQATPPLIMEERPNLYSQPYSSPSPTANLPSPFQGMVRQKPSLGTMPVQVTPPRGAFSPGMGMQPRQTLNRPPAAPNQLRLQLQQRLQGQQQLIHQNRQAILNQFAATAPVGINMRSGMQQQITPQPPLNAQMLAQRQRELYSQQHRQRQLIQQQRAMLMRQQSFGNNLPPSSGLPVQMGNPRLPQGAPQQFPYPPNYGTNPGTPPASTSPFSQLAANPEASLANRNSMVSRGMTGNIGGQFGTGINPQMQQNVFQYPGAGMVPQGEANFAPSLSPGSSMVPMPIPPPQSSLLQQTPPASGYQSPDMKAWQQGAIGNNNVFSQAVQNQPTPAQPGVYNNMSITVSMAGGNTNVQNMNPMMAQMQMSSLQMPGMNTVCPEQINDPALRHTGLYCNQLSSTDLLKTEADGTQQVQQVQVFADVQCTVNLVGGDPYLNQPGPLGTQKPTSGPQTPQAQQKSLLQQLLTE
In the case of `CC1CC(C)C(=NNC(N)=O)C(C(O)CC2CCC(=O)NC2=O)C1` (stereo unspecified), the pIC50 (as a rule, the negative decadic logarithm of the IC50, by convention in mol/L) was 5.07. On the same count and under the same terms, to `COc1cccc(/C=N/NC(=O)C(=O)Nc2ccccc2OC(F)(F)C(F)F)c1O` belongs 5.24; to `COc1ccc(Nc2ncnc3ccc(Br)cc23)c(OC)c1`, 5.61.

Regarding `COc1ccc(Nc2ncnc3ccc(C)cc23)cc1`, the pIC50 was 5.40.

`O=C(Nc1cccnc1)c1ccc(C(=O)Nc2cccnc2)cc1`: the IC50 – broadly, the concentration at which inhibition is half-maximal – was > 35.9 µM (inactive). Still for that read-out and setting: next, `O=C(CCl)NC(Cc1ccccc1)c1ccccc1` (stereo unspecified): “inactive”; `CN(CC(=O)Nc1ccc(Cl)c(C(F)(F)F)c1)C(=O)C1CC(=O)N(c2ccc3c(c2)OCCO3)C1` (stereo unspecified): “inactive”; `Cc1ccc(/C=C2/SC(=S)N(CCCC(=O)Nc3ccc(O)cc3)C2=O)cc1`: > 35.9 µM (inactive). On the same count and under the same terms, to `O=C(NC(NC(=S)N1CCOCC1)C(Cl)(Cl)Cl)c1ccc(Cl)cc1` (stereo unspecified) belongs > 35.9 µM (inactive); to `NS(=O)(=O)c1ccc(Nc2nc(-c3cccnc3)cs2)cc1`, > 35.8 µM (inactive); to `OCCN(CCO)CC(O)COc1ccc(C23CC4CC(CC(C4)C2)C3)cc1` (stereo unspecified), > 35.9 µM (inactive).

`CCCS(=O)(=O)c1c(S(=O)(=O)CCC)c2c(C)cccn2c1C(=O)N/N=C/c1cc(O)cc(O)c1`: the IC50 entry is “inactive”.

Consider `CC(=O)/C(N=Nc1ccc2c(c1)OCCO2)=C(\C)O`, for which the IC50 is > 35.9 µM (inactive).

`C=CCn1c(Oc2ccccc2F)nc2c1c(=O)n(C)c(=O)n2C`: the IC50 result is “inactive”. Take `COc1cc(OC)c2cc(C(=O)N/N=C/c3cccc(OC)c3O)[nH]c2c1`: the IC50 entry was “inactive”.

Take `Cc1ccc(C(=O)Nc2sc(C)c(-c3ccccc3)c2C(N)=O)cc1[N+](=O)[O-]`: the IC50 is > 35.9 µM (inactive). On the same count and under the same terms, next, `CCc1c(C)nc2c(C)cccc2c1SCCC#N`: > 35.9 µM (inactive). In the case of `COc1ccc2ncn(-c3ccccc3)c2c1`, the negative logarithm of the IC50 (pIC50) is 5.09.

For `O=C(NC(=S)Nc1ccc(N2CCN(C(=O)c3ccccc3)CC2)cc1)c1cccs1`, the IC50 result was “inactive”.

Take `COc1cccc(NC(=O)CN(C)CC(=O)Nc2ccc(Cl)cc2[N+](=O)[O-])c1`: the IC50 entry is “inactive”. The same measure, in the same setting: next, `CCOC(=O)CSc1cc(-c2ccccc2)nc2ncnn12`: > 35.9 µM (inactive); `COc1ccccc1CNC(=O)C(=O)NCCC1CCCCN1S(=O)(=O)c1ccc(C)cc1` (stereo unspecified): “inactive”. Same read-out and setting: next, `Fc1cccc(CSc2nnc3ccc(-c4ccncc4)nn23)c1`: > 35.8 µM (inactive); `COc1cc(/C=C2\CC(C(C)(C)C)C/C(=C\c3cc(OC)c(OC)c(OC)c3)C2=O)cc(OC)c1OC` (stereo unspecified): > 35.9 µM (inactive). Turning to `COc1ccc(OC)c(/C=C2\NC(=O)NC2=O)c1`, the negative logarithm of the IC50 (pIC50) was 5.13. As for `O=C(Nc1nc(-c2ccccn2)cs1)c1cccc(-n2cnnn2)c1`, the IC50 entry was “inactive”. `COc1cc(C(=O)N/N=C(\c2ccccc2)c2ccccn2)cc(OC)c1OC`: the IC50 is > 11.9 µM (inactive). `S=C(Nc1ccccc1)Nc1ccc(OCc2ccc(Cl)cc2Cl)cc1`: the pIC50 is 5.37. As to `CCN(C(=O)c1cccc(S(=O)(=O)N(C)C)c1)C12CC3CC(CC(C3)C1)C2`, the IC50 is > 35.9 µM (inactive).

Turning to `NC(=S)NN=Cc1nccc2c(N)cccc12`, the IC50 entry is “inactive”. Turning to `CC(C)n1c(-c2cccnc2)nc2cnccc21`, the IC50 result was “inactive”. Same read-out and setting: next, `O=C(COC(=O)c1ccc[nH]c1=O)Nc1ccc(N2CCCCC2)cc1`: > 35.9 µM (inactive). As to `Cc1nc(N2CCC(C(N)=O)CC2)c2c(-c3cccs3)csc2n1`, the negative logarithm of the IC50 (pIC50) is 5.07. As for `CN(C)C(=O)c1ccc(-c2n[nH]c(=O)c3ccccc23)cc1`, the IC50 entry was “inactive”. Still for that read-out and setting: to `CC(=O)N1CCN(c2ccc(Oc3ncnc4sccc34)cc2)CC1` belongs “inactive”.

Consider `COc1ccccc1-c1cc2nc(-c3ccccc3)cc(N3CCN(C(=O)c4ccco4)CC3)n2n1`, for which the IC50 result was “inactive”.

As for `Cn1nc(C(F)(F)F)c(C#N)c1N1CCN(c2ccc(F)cc2)CC1`, the negative-log IC50 (pIC50) is 5.03. Consider `COc1ccc(C(O)(C(C)C)C(CN2CCOCC2)c2ccc(Cl)cc2)cc1` (stereo unspecified), for which the IC50 entry is “inactive”. The same measure, in the same setting: next, `COc1ccc(/C=C2\CC/C(=C\c3ccc(OC)c(OC)c3)C2=O)cc1OC`: > 35.9 µM (inactive). As for `NNC(=O)c1cc2ccccc2cc1O`, the pIC50 was 5.15.

In the case of `NC(=O)c1cc(Sc2ccccc2)nc2ccccc12`, the negative logarithm of the IC50 (pIC50) was 5.12. Take `CCOc1ccc(-c2noc(CCC(=O)O)n2)cc1`: the IC50 is > 35.9 µM (inactive). For the compound `C=CCNc1ncnc2ccc(Br)cc12`, the negative logarithm of the IC50 (pIC50) is 5.17. For the compound `COC(=O)N(NC(=O)C(O)(CCC(C)C)CCC(C)C)c1ccccc1`, the IC50 is > 35.9 µM (inactive). Still for that read-out and setting: next, `CC(C)(C)OC(=O)NCC(=O)Oc1cc2oc(=O)cc(-c3ccccc3)c2cc1Cl`: “inactive”.

On to `O=C(N/N=C/c1coc2ccc(Cl)cc2c1=O)c1ccc(O)cc1`, for which the IC50 is > 35.9 µM (inactive). Same read-out and setting: to `Cc1ccc2nc(C(F)(F)F)c(C#N)c(N)c2c1` belongs “inactive”. For `O=C(Nc1cccc(C(F)(F)F)c1)Nc1nnc([C@@H]2C[C@H](O)[C@@H](CO)O2)s1`, the pIC50 was 5.02.

With `c1ccc(-c2nnc(-c3ccccn3)nc2NC2CCCCC2)cc1`, the pIC50 is 5.28. For the compound `CCc1nc(N)nc(N)c1-c1ccc(Cl)c([N+](=O)[O-])c1`, the pIC50 is 5.21. For `Cc1ccc(O)c(C(=O)c2cnn(C(=O)COc3ccc(Cl)cc3)c2)c1`, the IC50 result is “inactive”. Same read-out and setting: next, `N#Cc1cc2ccncc2c2ccccc12`: > 35.9 µM (inactive); `CCOC(=O)c1c(NC(=O)C(C)N2CCN(C(=O)c3ccco3)CC2)sc2c1CCCC2` (stereo unspecified): “inactive”. Still for that read-out and setting: to `CCCc1cc(C(=O)N(C)CC(=O)Nc2ccc(OCC)c(OCC)c2)sc1C` belongs > 35.9 µM (inactive).

In the case of `Cc1ccc2occ(/C=N/NC(=O)[C@@H](N)Cc3ccccc3)c(=O)c2c1`, the pIC50 was 5.09.

`Cc1nc2ccccn2c1-c1ccnc(=S)[nH]1`: the pIC50 is 5.20. As to `Nc1ccc(Oc2ccccc2-c2ccccc2)cc1`, the IC50 result is “inactive”.

Regarding `O=C(N/N=C/c1ccccc1O)/C(=C/c1ccccc1)CCO`, the IC50 result is “inactive”. Same read-out and setting: to `Cc1ccc(OCC(=O)c2cc(C)n(-c3ccccc3)c2C)c([N+](=O)[O-])n1` belongs “inactive”; to `CCN(c1ccccc1)S(=O)(=O)c1cc(C(=O)Nc2ccc(Br)cc2)ccc1F`, > 12 µM (inactive). As to `Cc1ccc(C)c(NC(=O)c2ccccc2NS(=O)(=O)c2cc([N+](=O)[O-])ccc2C)c1`, the pIC50 was 5.32. `c1cnc2ccc(-n3ccnc3)cc2c1`: the IC50 was > 35.9 µM (inactive).

As to `CC[C@@]1(O)C(=O)OCc2c1cc1n(c2=O)Cc2cc3c(NC(=O)CN)cccc3nc2-1`, the IC50 was > 35.9 µM (inactive). Still for that read-out and setting: to `CCN(CC(=O)Nc1ccc(NC(C)=O)cc1)C(=O)C1(c2ccc(Cl)cc2)CCC1` belongs “inactive”; to `CN(c1ccc(C(=O)N2CCN(Cc3ccc4c(c3)OCO4)CC2)cc1)S(=O)(=O)c1ccccc1`, > 35.9 µM (inactive). `Nc1ccc(-c2cc3ccccc3oc2=O)cc1`: the pIC50 was 5.05. Turning to `CCOc1cccc(/C=N/NC(=O)c2cc(C3CC3)[nH]n2)c1O`, the negative logarithm of the IC50 (pIC50) was 5.08.

On to `CN1CCN(c2cccc3c2C(=O)c2ccccc2C3=O)CC1`, for which the IC50 is > 35.9 µM (inactive). The same measure, in the same setting: to `CCn1c(Oc2cccc(Br)c2)nc2c1c(=O)n(C)c(=O)n2C` belongs “inactive”.

With `O=C(Nc1nc(-c2ccccn2)cs1)c1cccc(S(=O)(=O)N2CCOCC2)c1`, the IC50 result was “inactive”. `Cc1ccc2occ(/C=N/NC(=O)c3ccncc3)c(=O)c2c1`: the IC50 entry was “inactive”.

For `Cc1cc(/C=C2\Cc3ccccc3C2=O)c(C)n1-c1ccccc1`, the IC50 was > 35.9 µM (inactive).

Consider `CC(C)Cn1c(N)c(C(=O)COC(=O)c2cc3ccccc3cc2O)c(=O)n(C)c1=O`, for which the IC50 was > 35.9 µM (inactive). On the same count and under the same terms, next, `CCN(Cc1ccncc1)C(=O)CC1C(=O)NCCN1Cc1ccc(F)c(F)c1` (stereo unspecified): “inactive”. As to `CCOc1cc(C(N)=O)cc(Br)c1OC`, the IC50 entry is “inactive”. As to `Cn1c(=O)c2[nH]c(COc3ccc(C(C)(C)C)cc3)nc2n(C)c1=O`, the IC50 entry is “inactive”.

For the compound `N#Cc1c(-c2ccccc2)c(C#N)c2nc3ccccc3n2c1N`, the IC50 is > 35.9 µM (inactive). Regarding `CC(C)(C)NC(=O)C1(C)CCC(=O)N1CCCn1ccnc1` (stereo unspecified), the IC50 entry is “inactive”. The same measure, in the same setting: next, `Cc1sc2ncnc(N3CCC(C(=O)Nc4cc(S(C)(=O)=O)ccc4Cl)CC3)c2c1C`: “inactive”; `O=C1NCCc2c1[nH]c1ccc([N+](=O)[O-])cc21`: “inactive”; `O=C(c1ccncc1)N(Cc1cc2ccccc2[nH]c1=O)C1CCCCC1`: “inactive”. The same measure, in the same setting: to `CC(C)(C)c1cc(C(=O)N/N=C/c2ccc(O)cc2)n(-c2ccccc2)n1` belongs > 35.9 µM (inactive); to `Cc1ccc(N=c2c([N+](=O)[O-])nn(-c3ccc4c(c3)OCCO4)n2O)cc1F`, “inactive”; to `CC1(C)Cc2c(ccc3ccccc23)C(=O)N1`, “inactive”.

For `CCC(C)(C)n1nnnc1CN1CCC(n2c(C)nc3cc(C(F)(F)F)ccc32)CC1`, the IC50 is > 35.9 µM (inactive). As to `Cc1c(CC(=O)NCCCC(=O)O)c(=O)oc2cc3c(cc12)CCC(C)(C)O3`, the IC50 entry was “inactive”.

On to `C=C1C(=O)[C@@]23C[C@H]4[C@@H]5[C@@]6(C)CCC[C@@]57[C@@H]2[C@@H](O)[C@@H]1C[C@H]3[C@H]7N4C6`, for which the negative logarithm of the IC50 (pIC50) is 5.43. In the case of `COc1cccc2c1C(=N)c1c(O)c3c(c(O)c1C2=O)CC(O)(C(C)=O)CC3OC1CC(N)C(O)C(C)O1` (stereo unspecified), the IC50 was > 35.9 µM (inactive). As for `Cn1nc(C(F)(F)F)c(C#N)c1N1CCN(c2ccccc2)CC1`, the pIC50 was 5.15. Consider `Cc1ccc(S(=O)(=O)Nc2c(NC3CCCCC3)c3ccccc3oc2=O)c(C)c1`, for which the IC50 is > 35.9 µM (inactive). The same measure, in the same setting: next, `O=C1c2cccc(OCc3ccc(F)cc3)c2CCN1Cc1ccccc1`: > 35.9 µM (inactive).
